Experimental data as given in ChEMBL document CHEMBL3879915, “Methods of inhibiting PRMT5” (2014).

How the values were obtained:
[1] = target: Protein arginine N-methyltransferase 5 (Homo sapiens, UniProt O14744); experiment: Inhibition of PRMT5 in human Z138 cells assessed as decrease in di-methyl arginine levels after 96 hrs by Western blot method; assay type: cell-based
[2] = Antiproliferative activity against human Z138 cells assessed as inhibition of cell viability after 5 days by Cell-Titer Glo assay; assay type: functional, cell-based; settings: Z-138, 120 h
[3] = target: PRMT5/MEP50 complex (Homo sapiens, UniProt O14744); experiment: Inhibition of recombinant human fetal brain FLAG-tagged PRMT5/full length human testis 6His-tagged MEP50 expressed in baculovirus infected insect Sf9 cells using human histone H4 (1 to 15 residues) as substrate preincubated for 30 mins followed by [3H]-SAM addition
Sequence of PRMT5/MEP50 complex (O14744 whole entry, the tested form may be a part): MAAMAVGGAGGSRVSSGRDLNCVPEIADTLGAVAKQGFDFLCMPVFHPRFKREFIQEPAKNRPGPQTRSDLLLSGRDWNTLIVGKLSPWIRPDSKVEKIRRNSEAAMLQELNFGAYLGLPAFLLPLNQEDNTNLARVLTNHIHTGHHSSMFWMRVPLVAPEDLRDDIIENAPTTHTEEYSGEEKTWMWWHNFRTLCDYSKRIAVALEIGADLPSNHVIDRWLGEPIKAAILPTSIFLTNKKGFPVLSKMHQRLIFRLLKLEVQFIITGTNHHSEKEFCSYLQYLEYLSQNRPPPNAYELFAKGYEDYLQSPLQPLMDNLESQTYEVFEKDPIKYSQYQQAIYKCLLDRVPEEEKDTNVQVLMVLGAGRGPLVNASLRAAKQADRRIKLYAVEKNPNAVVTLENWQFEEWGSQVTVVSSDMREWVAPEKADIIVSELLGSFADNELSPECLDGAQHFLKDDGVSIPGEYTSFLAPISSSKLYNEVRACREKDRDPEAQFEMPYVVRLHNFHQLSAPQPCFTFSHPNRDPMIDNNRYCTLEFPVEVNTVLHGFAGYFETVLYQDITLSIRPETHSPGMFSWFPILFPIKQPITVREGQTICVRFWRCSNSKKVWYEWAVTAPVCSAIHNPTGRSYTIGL
Sequence of PRMT5/MEP50 complex (Q9BQA1 whole entry, further chain, the tested form may be a part): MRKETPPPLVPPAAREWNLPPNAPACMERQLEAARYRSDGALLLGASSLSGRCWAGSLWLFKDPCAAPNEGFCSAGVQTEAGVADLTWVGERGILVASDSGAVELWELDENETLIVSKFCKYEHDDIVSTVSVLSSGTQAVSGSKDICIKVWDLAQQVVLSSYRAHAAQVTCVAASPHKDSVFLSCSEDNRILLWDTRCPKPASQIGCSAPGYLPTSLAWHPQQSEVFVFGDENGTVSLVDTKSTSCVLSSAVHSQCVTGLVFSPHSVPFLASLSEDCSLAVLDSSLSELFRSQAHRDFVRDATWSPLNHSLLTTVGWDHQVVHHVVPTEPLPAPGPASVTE

Sequence of Protein arginine N-methyltransferase 5 (O14744 whole entry): as the sequence (O14744 whole entry, the tested form may be a part) above

SMILES | EC50 [1] | EC50 [2] | IC50 [3]
NC(=O)c1ccc(-c2cccc(OCC(O)CN3CCc4ccccc4C3)c2)cc1 (stereo unspecified) | 1000 to 10000 nM | > 20 µM | 101 to 1000 nM
COC(=O)c1cncc(-c2cccc(OCC(O)CN3CCc4ccccc4C3)c2)c1 (stereo unspecified) | > 20000 nM | > 20 µM | 1000 to 10000 nM
Cc1ccc(F)c(-c2cccc(OCC(O)CN3CCc4ccccc4C3)c2)c1 (stereo unspecified) | 1000 to 10000 nM | > 20 µM | 101 to 1000 nM
OC(COc1cccc(-c2ccc3ncn(C4CCNCC4)c3c2)c1)CN1CCc2ccccc2C1 (stereo unspecified) | 101 to 1000 nM | 1 to 10 µM | < 100 nM
OC(COc1cccc(-c2cccnc2F)c1)CN1CCc2ccccc2C1 (stereo unspecified) | 1000 to 10000 nM | > 20 µM | 101 to 1000 nM
O=C(Cn1ccc2cnc(-c3cccc(OCC(O)CN4CCc5ccccc5C4)c3)nc21)N1CCOCC1 (stereo unspecified) | 101 to 1000 nM | 10 to 40 µM | 101 to 1000 nM
Cn1ccc2ccc(-c3cccc(OCC(O)CN4CCc5ccccc5C4)c3)nc21 (stereo unspecified) | 101 to 1000 nM | > 20 µM | < 100 nM
CN1CCC(n2cnc3ccc(-c4cccc(OCC(O)CN5CCc6ccccc6C5)c4)cc32)C1 (stereo unspecified) | 101 to 1000 nM | 1 to 10 µM | < 100 nM
Cn1ccc(C(=O)Nc2cccc(OCC(O)CN3CCc4ccccc4C3)c2)n1 (stereo unspecified) | 1000 to 10000 nM | > 20 µM | 1000 to 10000 nM
O=C(Nc1cccc(OCC(O)CN2CCc3ccccc3C2)c1)c1cncnc1 (stereo unspecified) | 1000 to 10000 nM | > 20 µM | 1000 to 10000 nM
Cn1ccc2ccc(-c3cccc(OCC(O)CN4CCc5ccccc5C4)c3)cc21 (stereo unspecified) | 1000 to 10000 nM | 10 to 40 µM | 101 to 1000 nM
CN1CCN(c2ccc(-c3cccc(OCC(O)CN4CCc5ccccc5C4)c3)cn2)CC1 (stereo unspecified) | 1000 to 10000 nM | 1 to 10 µM | 101 to 1000 nM
Cn1cnc(C(=O)Nc2cccc(OCC(O)CN3CCc4ccccc4C3)c2)c1 (stereo unspecified) | 1000 to 10000 nM | > 20 µM | 1000 to 10000 nM
Cn1cnc2cnc(-c3cccc(OCC(O)CN4CCc5ccccc5C4)c3)nc21 (stereo unspecified) | 101 to 1000 nM | 1 to 10 µM | 101 to 1000 nM
O=C1COc2ccc(-c3cccc(OCC(O)CN4CCc5ccccc5C4)c3)cc2N1 (stereo unspecified) | 1000 to 10000 nM | 10 to 40 µM | 101 to 1000 nM
OC(COc1cccc(-c2ccc3cnoc3c2)c1)CN1CCc2ccccc2C1 (stereo unspecified) | 10000 to 40000 nM | > 20 µM | 1000 to 10000 nM
O=C(Nc1cccc(OCC(O)CN2CCc3ccccc3C2)c1)c1cnccn1 (stereo unspecified) | 1000 to 10000 nM | > 20 µM | 101 to 1000 nM
Cn1cnc2ccc(-c3cc(NCC(O)CN4CCc5ccccc5C4)ncn3)cc21 (stereo unspecified) | 101 to 1000 nM | 1 to 10 µM | 101 to 1000 nM
Cn1cc2ccc(-c3cccc(OCC(O)CN4CCc5ccccc5C4)c3)nc2n1 (stereo unspecified) | 101 to 1000 nM | 10 to 40 µM | < 100 nM
Cn1ncc2ccc(-c3cc(NCC(O)CN4CCc5ccccc5C4)ncn3)cc21 (stereo unspecified) | 101 to 1000 nM | > 20 µM | 101 to 1000 nM
CC(C)Oc1ccc(F)c(-c2cccc(OCC(O)CN3CCc4ccccc4C3)c2)c1 (stereo unspecified) | 1000 to 10000 nM | > 20 µM | 101 to 1000 nM
CC(=O)Nc1cccc(-c2cccc(OCC(O)CN3CCc4ccccc4C3)c2)c1 (stereo unspecified) | 101 to 1000 nM | > 20 µM | 101 to 1000 nM
CC(C)(C)OCc1cccc(-c2cccc(OCC(O)CN3CCc4ccccc4C3)c2)c1 (stereo unspecified) | 1000 to 10000 nM | > 20 µM | 101 to 1000 nM
CN(C)c1ccc(-c2cccc(OCC(O)CN3CCc4ccccc4C3)c2)cc1 (stereo unspecified) | 1000 to 10000 nM | > 20 µM | 101 to 1000 nM
OC(COc1cccc(-c2ccc3ncn(C4CNC4)c3c2)c1)CN1CCc2ccccc2C1 (stereo unspecified) | 1000 to 10000 nM | 1 to 10 µM | 101 to 1000 nM
CNC(=O)c1cncc(-c2cccc(OCC(O)CN3CCc4ccccc4C3)c2)c1 (stereo unspecified) | 1000 to 10000 nM | > 20 µM | 1000 to 10000 nM

SMILES | EC50 [1] | EC50 [2] | IC50 [3]
OC(COc1cccc(-c2csc3ccccc23)c1)CN1CCc2ccccc2C1 (stereo unspecified) | 1000 to 10000 nM | > 20 µM | 101 to 1000 nM
Cn1cnc2c1CN(c1cccc(OCC(O)CN3CCc4ccccc4C3)c1)CC2 (stereo unspecified) | 1000 to 10000 nM | > 20 µM | 101 to 1000 nM
Cn1nccc1C(=O)Nc1cccc(OCC(O)CN2CCc3ccccc3C2)c1 (stereo unspecified) | 1000 to 10000 nM | > 20 µM | 1000 to 10000 nM
Cn1cnc2ccc(-c3cccc(OC[C@@H](O)CN4CCc5ccccc5C4)c3)cc21 | 1000 to 10000 nM | 1 to 10 µM | 101 to 1000 nM
Cn1ccc2cnc(-c3cccc(OCC(O)CN4CCc5ccccc5C4)c3)nc21 (stereo unspecified) | 101 to 1000 nM | > 20 µM | < 100 nM
Cn1cnc2ccc(-c3cccc(OC[C@H](O)CN4CCc5ccccc5C4)c3)cc21 | 101 to 1000 nM | 1 to 10 µM | < 100 nM
CN1CCC(n2cnc3ccc(-c4cccc(OCC(O)CN5CCc6ccccc6C5)c4)cc32)CC1 (stereo unspecified) | 101 to 1000 nM | 1 to 10 µM | < 100 nM
COc1ccc(-c2cccc(OCC(O)CN3CCc4ccccc4C3)c2)cc1Cl (stereo unspecified) | 10000 to 40000 nM | > 20 µM | 101 to 1000 nM
Cc1cn(C)c2cc(-c3cccc(OCC(O)CN4CCc5ccccc5C4)c3)ccc12 (stereo unspecified) | 1000 to 10000 nM | > 20 µM | 101 to 1000 nM
O=C1NCc2ccc(-c3cccc(OCC(O)CN4CCc5ccccc5C4)c3)cc21 (stereo unspecified) | 1000 to 10000 nM | 10 to 40 µM | 101 to 1000 nM
CNC(=O)c1cccc(-c2cccc(OCC(O)CN3CCc4ccccc4C3)c2)c1 (stereo unspecified) | 1000 to 10000 nM | > 20 µM | 101 to 1000 nM
O=C(c1cccc(-c2cccc(OCC(O)CN3CCc4ccccc4C3)c2)c1)N1CCCC1 (stereo unspecified) | 1000 to 10000 nM | 10 to 40 µM | 101 to 1000 nM
OC(COc1cccc(-c2ccc3ncn(C4CCNC4)c3c2)c1)CN1CCc2ccccc2C1 (stereo unspecified) | 101 to 1000 nM | 1 to 10 µM | < 100 nM
CC(=O)c1ccc(-c2cccc(OCC(O)CN3CCc4ccccc4C3)c2)cc1 (stereo unspecified) | 1000 to 10000 nM | > 20 µM | 101 to 1000 nM
NC(=O)c1cccc(-c2cccc(OCC(O)CN3CCc4ccccc4C3)c2)c1 (stereo unspecified) | 1000 to 10000 nM | > 20 µM | 101 to 1000 nM
OC(COc1cccc(-c2ccccc2Oc2ccccc2)c1)CN1CCc2ccccc2C1 (stereo unspecified) | 1000 to 10000 nM | > 20 µM | 101 to 1000 nM
Cn1cc2ccc(-c3cc(NCC(O)CN4CCc5ccccc5C4)ncn3)cc2n1 (stereo unspecified) | 101 to 1000 nM | > 20 µM | 101 to 1000 nM
OC(COc1cccc(-c2ccc3ncoc3c2)c1)CN1CCc2ccccc2C1 (stereo unspecified) | 1000 to 10000 nM | 10 to 40 µM | 101 to 1000 nM
N#Cc1cccc(-c2cccc(OCC(O)CN3CCc4ccccc4C3)c2)c1 (stereo unspecified) | 1000 to 10000 nM | > 20 µM | 101 to 1000 nM
OC(COc1cccc(-c2cccc3[nH]cnc23)c1)CN1CCc2ccccc2C1 (stereo unspecified) | 101 to 1000 nM | 10 to 40 µM | < 100 nM
OC(COc1cccc(-c2cc(OC(F)(F)F)ccc2Cl)c1)CN1CCc2ccccc2C1 (stereo unspecified) | 10000 to 40000 nM | > 20 µM | 101 to 1000 nM
Cn1ncc2ccc(-c3ccnc(NCC(O)CN4CCc5ccccc5C4)c3)cc21 (stereo unspecified) | 101 to 1000 nM | 1 to 10 µM | < 100 nM
Cn1cnc2ccc(-c3cc(NCC(O)CN4CCc5ccccc5C4)ccn3)cc21 (stereo unspecified) | 1000 to 10000 nM | 10 to 40 µM | 101 to 1000 nM
Cn1cnc2ccc(-c3cncc(NCC(O)CN4CCc5ccccc5C4)c3)cc21 (stereo unspecified) | < 100 nM | 1 to 10 µM | < 100 nM
Cn1cnc2ccc(-c3cccc(OCC(O)CN4CCc5ccccc5C4)c3)nc21 (stereo unspecified) | 101 to 1000 nM | 0.101 to 1 µM | < 100 nM
CN1CC(n2cnc3ccc(-c4cccc(OCC(O)CN5CCc6ccccc6C5)c4)cc32)C1 (stereo unspecified) | 101 to 1000 nM | 1 to 10 µM | < 100 nM
